The target of this test is T1, 5-HT1 -like Receptor (Oryctolagus cuniculus, UniProt P49144).
T1 construct: the basilar artery removed with the aid of a dissecting microscope; from tissue; host or cells: rabbit basilar artery ring segments, endothelium removed
In words: 5-HT1-like Receptor Screen, rabbit isolated basilar artery (isometric tension, cumulative concentration-effect curves). As to conditions: endothelium removed, in presence of ascorbate, indomethacin, cocaine, ketanserin and prazosin. The class given is cell-based. As to the method:
5-HT1 -like Receptor Screen
Experiments were performed in intracranial arteries from rabbit isolated basilar artery in a similar method to that described previously (Parsons and Whalley, 1989, Eur J Pharmacol 174, 189-196.)
In brief, rabbits were killed by overdose with anaesthetic (sodium pentobarbitone). The whole brain was quickly removed and immersed in ice cold modified Kreb's solution and the basilar artery removed with the aid of a dissecting microscope. The Krebs solution was of the following composition (mM) Na^+ (120); K^+ (5); Ca^2+ (2.25)Mg^2+(0.5); Cl^- (98.5); SO4^2- (1); ETDA (0.04), equilibrated with 95% O2 /5% CO2. The endothelium was removed by a gentle rubbing of the lumen with a fine metal wire. Arteries were then cut into ring segments (ca 4-5 mm wide) and set up for recording of isometric tension in 50 ml tissue baths in modified Krebs solution with the additional supplement of (mM); […] (20); fumarate (10); pyruvate (5); L-glutamate (5) and glucose (10). The arteries were then placed under a resting force of 3-4 mN maintained at 37° C. and the solution bubbled with 95% O2 /5% CO2.
After tests for initial reactivity with 90 mM KCl depolarising solution and for lack of acetylcholine-induced relaxation of 5-HT ([…]) precontraction, cumulative concentration-effect curves ([…]) to 5-HT were constructed in the presence of ascorbate […], cocaine […], indomethacin […], ketanserin […] and prazosin […].
Following a 45-60 min wash period, cumulative concentration-effect curves to the test compounds or 5-HT (as a time match control) were constructed in the presence of ascorbate, indomethacin, cocaine, ketanserin and prazosin.
R-(+)-6-carboxamido-3-N-methylamino-1,2,3,4-tetrahydrocarbazole; (compound A)
S-(-)-6-carboxamido-3-N-methylamino-1,2,3,4-tetrahydrocarbazole; (compound B)
R-(+)-6-carboxamido-3-N-ethylamino-1,2,3,4-tetrahydrocarbazole; (compound C)

The text below walks through data of patent US5618948A, “Process for preparing an enantiomer of a carbazole derivative” (SmithKline Beecham p.l.c., priority 1995, dated 1997).

T1 sequence (P49144 whole entry): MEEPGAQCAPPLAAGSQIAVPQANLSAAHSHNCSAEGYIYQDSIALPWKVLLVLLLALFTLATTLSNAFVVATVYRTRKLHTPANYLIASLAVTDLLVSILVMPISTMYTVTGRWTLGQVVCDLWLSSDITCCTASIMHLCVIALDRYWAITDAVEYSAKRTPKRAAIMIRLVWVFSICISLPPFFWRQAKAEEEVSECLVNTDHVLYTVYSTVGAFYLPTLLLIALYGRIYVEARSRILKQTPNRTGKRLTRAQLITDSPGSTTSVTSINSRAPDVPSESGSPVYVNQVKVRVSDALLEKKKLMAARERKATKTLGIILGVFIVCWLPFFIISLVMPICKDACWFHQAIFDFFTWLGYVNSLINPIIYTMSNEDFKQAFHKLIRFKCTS

As to `CCN[C@@H]1CCc2[nH]c3ccc(C(N)=O)cc3c2C1` [Compound C, R-(+)-6-carboxamido-3-N-ethylamino-1,2,3,4-tetrahydrocarbazole], the EC50 is 0.16 µM.
On to `CN[C@H]1CCc2[nH]c3ccc(C(N)=O)cc3c2C1` [Compound B, S-(-)-6-carboxamido-3-N-methylamino-1,2,3,4-tetrahydrocarbazole], for which the EC50 was more than 2 µM.
On to `CN[C@@H]1CCc2[nH]c3ccc(C(N)=O)cc3c2C1` [Compound A, R-(+)-6-carboxamido-3-N-methylamino-1,2,3,4-tetrahydrocarbazole], for which the EC50 is 0.03 µM.

By EC50 is commonly meant the concentration giving half of the maximal effect.
